Assay in series [1]: not given
This is another data set of the same source.

The compound `C[C@H]1CCCC[C@H]1O` (relative stereo) [cis-2-methylcyclohexanol] had a flash point of 59 °C.
In turn, `C[C@H]1CCC[C@H](C)C1` (relative stereo) [trans-1,3-dimethylcyclohexane] came in with a flash point of 8 °C.
On the same count and under the same terms, with `C[C@@H]1CC(=O)[C@@H](C)C1` (relative stereo) [trans-2,4-dimethylcyclopentanone] the figure was 42 °C; with `C[C@@H]1CC(=O)C[C@H]1C` (relative stereo) [trans-3,4-dimethylcyclopentanone], 41 °C.
Same read-out and setting: the figure for `C=C(Cl)Cl` [1,1-dichloroethene] is -25 °C; for `CCC(Cl)Cl` [1,1-dichloropropane] it is 7 °C.
On to `CC1(C)CCCC1` [1,1-dimethylcyclopentane], for which the flash point is -16 °C.
On to `c1ccc2c(c1)CCCC2` [1,2,3,4-tetrahydronaphthalene], for which the flash point stood at 71 °C.
Take `Cc1cc(C)c(C)c(C)c1` [1,2,3,5-tetramethylbenzene]: the flash point was 63 °C.
On to `COc1ccccc1OC` [1,2-dimethoxybenzene], for which the flash point is 87 °C.
For the compound `CCCc1cccc(C)c1C` [1,2-dimethyl-3-propylbenzene], the flash point came to 72 °C.
Same read-out and setting: with `CC(O)CO` (configuration not stated) [1,2-propanediol] the figure was 99 °C; with `CC(O)CCO` (configuration not stated) [1,3-butanediol], 109 °C.
`C1=CCCC=C1` [1,3-cyclohexadiene]: the flash point was -16 °C.
On to `CC(Cl)CCCl` (configuration not stated) [1,3-dichlorobutane], for which the flash point stood at 31 °C.
Same read-out and setting: the figure for `C1COCO1` [1,3-dioxolane] is -6 °C; for `OCCCCO` [1,4-butanediol] it is 121 °C; for `N#CCCCCC#N` [1,4-dicyanobutane] it is 159 °C.
Same read-out and setting: with `CC(C)c1ccc(C(C)C)cc1` [1,4-diisopropylbenzene] the figure was 76 °C; with `C=CCCCC=C` [1,6-heptadiene], -10 °C.
Still for that read-out and setting: the figure for `C#CCCCC#C` [1,6-heptadiyne] is 9 °C.
Take `C=CCCCCC=C` [1,7-octadiene]: the flash point was found to be 5 °C.
`C#CCCCCC#C` [1,7-octadiyne] registered a flash point of 23 °C.
The same measure, in the same setting: with `CCc1ccccc1Br` [1-bromo-2-ethylbenzene] the figure was 79 °C.
On to `CCCCBr` [1-bromobutane], for which the flash point is 10 °C.
Same read-out and setting: the figure for `CCCCCCBr` [1-bromohexane] is 47 °C; for `CCCBr` [1-bromopropane] it is -4 °C.
On the same count and under the same terms, with `CCCCS` [1-butanethiol] the figure was 2 °C; with `CC(C)CCl` [1-chloro-2-methylpropane], -17 °C; with `CCc1ccc(Cl)cc1` [1-chloro-4-ethylbenzene], 62 °C.
As for `CCCCCCCCl` [1-chloroheptane], the flash point amounted to 41 °C.
In turn, `CCCCCCCl` [1-chlorohexane] yielded a flash point of 26 °C.
Same read-out and setting: the figure for `CCCCCCCCCCl` [1-chlorononane] is 74 °C; for `CCCCCCCCCCN` [1-decanamine] it is 85 °C; for `CCCCCCCCCCO` [1-decanol] it is 108 °C.
Regarding `CCCCCCCCCCCCO` [1-dodecanol], the flash point came to 127 °C.
As for `C#CCCCCCCCCCC` [1-dodecyne], the flash point was 79 °C.
Still for that read-out and setting: with `CCc1cccc(C)c1C` [1-ethyl-2,3-dimethylbenzene] the figure was 65 °C; with `CCc1ccc(C)cc1C` [1-ethyl-2,4-dimethylbenzene], 57 °C.
Consider `CCc1cccc(C(C)C)c1` [1-ethyl-3-isopropylbenzene], for which the flash point was determined as 63 °C.
As for `CCc1ccc(F)cc1` [1-ethyl-4-fluorobenzene], the flash point worked out at 30 °C.
Regarding `CCN1CCCCC1` [1-ethylpiperidine], the flash point turned out to be 18 °C.
Turning to `Cc1cc(C)cc(F)c1` [1-fluoro-3,5-dimethylbenzene], the flash point worked out at 35 °C.
The compound `CCCCCCCS` [1-heptanethiol] had a flash point of 46 °C.
In turn, `CCCCCCCO` [1-heptanol] gave a flash point of 70 °C.
On the same count and under the same terms, with `C=CCCCCCCCCCCCCCC` [1-hexadecene] the figure was 129 °C; with `CCCCCCS` [1-hexanethiol], 30 °C; with `Cc1cccc(I)c1` [1-iodo-3-methylbenzene], 83 °C.
Same read-out and setting: with `CCCCCCCI` [1-iodoheptane] the figure was 79 °C.
As to `CCCCCCI` [1-iodohexane], the flash point was 61 °C.
On the same count and under the same terms, the figure for `CCCCCCCCI` [1-iodooctane] is 95 °C; for `Cn1cccc1` [1-methylpyrrole] it is 15 °C.
In the case of `CCCC[N+](=O)[O-]` [1-nitrobutane], the flash point stood at 47 °C.
As to `CCCCCC[N+](=O)[O-]` [1-nitrohexane], the flash point is 72 °C.
In the case of `CCCCC[N+](=O)[O-]` [1-nitropentane], the flash point worked out at 61 °C.
The same measure, in the same setting: with `CCCCCCCCCS` [1-nonanethiol] the figure was 79 °C.
`C=CCCCCCCC` [1-nonene] gave a flash point of 25 °C.
For `C#CCCCCCCC` [1-nonyne], the flash point worked out at 33 °C.
Same read-out and setting: with `C=CCCCCCCCCCCCCCCCC` [1-octadecene] the figure was 154 °C; with `CCCCCCCCS` [1-octanethiol], 68 °C; with `CCC(=O)Cc1ccccc1` [1-phenyl-2-butanone], 91 °C.
In series [1], `O=P(OC(CCl)CCl)(OC(CCl)CCl)OC(CCl)CCl` [tris(1,3-dichloropropan-2-yl) phosphate] had a flash point of 252.00 °C.
The compound `CCCCOCCOP(=O)(OCCOCCCC)OCCOCCCC` [tris(2-butoxyethyl) phosphate] had a flash point in series [1] of 224.00 °C.
`CCCCC(CC)COP(=O)(OCC(CC)CCCC)OCC(CC)CCCC` (configuration not stated) [tris(2-ethylhexyl) phosphate] returned a flash point in series [1] of 152.00 °C.
For the compound `Cc1ccccc1OP(=O)(Oc1ccccc1C)Oc1ccccc1C` [tris(2-methylphenyl) phosphate], in series [1], the flash point came to 225.00 °C.
`Cc1cccc(OP(=O)(Oc2cccc(C)c2)Oc2cccc(C)c2)c1` [tris(3-methylphenyl) phosphate] came in with a flash point in series [1] of 210.00 °C.
Still for that read-out and setting: the figure for `CCCCSP(SCCCC)SCCCC` [tris(butylsulfanyl)phosphane] is 146.00 °C; for `C=CCCCCCCCCC` [undec-1-ene] it is 71.00 °C; for `CCCCCCCCCC(C)=O` [undecan-2-one] it is 89.00 °C.
On the same count and under the same terms, with `CCCCCCCCCCCS` [undecane-1-thiol] the figure was 109.00 °C.
Still for that read-out and setting: the figure for `CCCCCCCCCCCc1ccccc1` [undecylbenzene] is 141.00 °C; for `CN(C)C(=S)[S-].CN(C)C(=S)[S-].[Zn+2]` [zinc;N,N-dimethylcarbamodithioate] it is 93.00 °C.

(Values after a flash point compilation (Sun et al. 2020).)
